Where only a bound is given, the exact number is not on record here.

Common to all, as to type: cell-based
Test [1] has as its system constitutive active colorectal cancer cell (CRC) Wnt pathway. Description: HCT116 Super TopFlash cellular reporter assay (constitutive active Wnt pathway). To be noted: Homo sapiens, HCT-116, 36 h, HCT116 TOP reporter cells, luciferase expression, 36 hours incubation, 50 μM to 15 nM. The procedure, abridged: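 Luciferase luminescence served as the Wnt read-out after 36 h of compound treatment at 37 °C. Compound came from a pre-dilution series (50 μM down to 15 nM, 3.16-fold steps) in CAFTY buffer. Cells were stable HCT116 TOP reporter cells, with matched FOP-vector control cells tested in parallel, seeded a day earlier.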

For test [2], the system named is HCT116 FOP control reporter cell line. Description: HCT116 FOP control vector reporter assay (non-functional TCF elements). The settings on record: Homo sapiens, HCT-116, 36 h, HCT116 FOP control reporter cells, luciferase expression, 36 hours incubation, 50 μM to 15 nM; read-out: HCT116 FOPFlash IC50. The procedure, abridged: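 Stable HCT116 line carrying the non-functional FOP luciferase construct, 10000 cells/well plated 24 hrs before. Compounds 50 μM to 15 nM (3.16-fold steps) in CAFTY buffer pH 7.4 with 2 mM Ca2+, 36 hours at 37° C; luciferase luminescence read.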
On the technique in general: A reporter such as luciferase makes a cellular process visible.

Test [3] deals with wildtype Wnt pathway. Briefly: HEK293 Super TopFlash cellular reporter assay, Wnt-3a stimulated (wildtype Wnt pathway). The settings on record: Homo sapiens; HEK293 TOP reporter cells, EC50 concentration of recombinant Wnt-3a, 16 hours incubation; read-out: HEK TOP OncoFlash IC50. On the procedure:
(§1) In order to determine the inhibitory activity of compounds for the WT Wnt signaling pathway, the Super TopFlash vector respectively FOP vector were cotransfected with pcDNA3 into HEK293 and stable transfected HEK293 cells were isolated by antibiotic selection. […] The recombinant human Wnt-3a was thereby used between 2500 and 5 ng/ml in two-fold dilution steps. […] Measurement of luciferase expression was done as described for the constitutive active Wnt assay.
In order to discover and characterize small molecules which inhibit the wildtype Wnt pathway, a cellular reporter assay was employed. The corresponding assay cell was generated by transfection of the mammalian cell line HEK293 (ATCC, #CRL-1573) with the Super TopFlash vector (Morin, Science 275, 1997, 1787-1790; Molenaar et al., Cell 86 (3), 1996, 391-399). The HEK293 cell line is cultivated at 37° C. and 5% CO2 in DMEM (Life Technologies, #41965-039), supplemented with 2 mM glutamine, 20 mM HEPES, 1.4 mM pyruvate, 0.15% Na-bicarbonate and 10% foetal bovine serum (GIBCO, #10270). Stable transfectants were generated by selection with 300 μg/ml Hygromycin.
(§2) In preparation of the assay, the two cell lines were plated 24 hours before beginning the test at 10000 cells per well in a 384 micro titre plate (MTP) in […] growth medium. […] The recombinant human Wnt-3a was thereby applied between 2500 and 5 ng/ml in two-fold dilution steps. Selective inhibitory activity for small molecules on the wildtype Wnt pathway was determined after parallel incubation of both (TOP and FOP) HEK293 reporter cell lines with a compound dilution series from 50 μM to 15 nM in steps of 3.16-fold dilutions in CAFTY buffer (130 mM NaCl, 5 mM KCl, 20 mM HEPES, 1 mM MgCl2, 5 mM NaHCO3, pH 7.4) containing 2 mM Ca^2+ and 0.01% BSA.
(§3) The compounds were thereby serially prediluted in 100% DMSO and thereafter 50 fold into the CAFTY compound dilution buffer (described above).

In test [4] the test system is HEK293 FOP control reporter cell line. Description: HEK293 FOP control vector reporter assay. The settings on record: Homo sapiens; HEK293 FOP control reporter cells, EC50 concentration of recombinant Wnt-3a, 16 hours incubation; read-out: HEK FOP IC50. On the procedure: as §1
In a parallel approach, HEK293 cells were cotransfected with the FOP control vector and pcDNA3. The FOP vector is identical to the TOP construct, but it contains instead of functional TCF elements a randomized, non-functional sequence. For this transfection a stable transfected cell line was generated as well, based on selection with Geneticin (1 mg/ml).
as §2, §3

For the compound `O=C(CN1CCOCC1)Nc1cc(NC(=O)c2ccc(-c3ccccc3)cc2)ccc1OC(F)(F)F` [Example 66, N-{3-[(morpholin-4-ylacetyl)amino]-4-(trifluoromethoxy)phenyl}biphenyl-4-carboxamide], the half-inhibitory concentration (IC50) in test [1] was 0.0392 µM; in test [2] it was not below 50 µM; in test [3] it was 1.6 µM; in test [4], not below 50 µM.

With `COc1ccc(NC(=O)c2ccc(-c3cccc(C)c3)cc2)cc1NC(=O)CN1CCOCC1` [Example 71, N-{4-methoxy-3-[(morpholin-4-ylacetyl)amino]phenyl}-3′-methylbiphenyl-4-carboxamide], the IC50 was 2.25 µM in test [1], not below 50 µM in test [2], 2.5 µM in test [3] and 25 µM in test [4].

Turning to `COc1ccc(NC(=O)c2ccc(-c3cccc(C#N)c3)cc2)cc1NC(=O)CN1CCOCC1` [Example 72, 3′-cyano-N-{4-methoxy-3-[(morpholin-4-ylacetyl)amino]phenyl}biphenyl-4-carboxamide], the IC50 in test [1] was 3.75 µM; in test [2] it was not below 50 µM; in test [3], 1.3 µM; in test [4], not below 50 µM.

On to `COc1ccc(NC(=O)c2ccc(-c3cccc(Cl)c3)cc2)cc1NC(=O)CN1CCOCC1` [Example 73, 3′-chloro-N-{4-methoxy-3-[(morpholin-4-ylacetyl)amino]phenyl}biphenyl-4-carboxamide], for which the IC50 in test [1] was 1.45 µM; in test [2] it was not below 50 µM; in test [3] it was 1.5 µM; in test [4] it was 32 µM.

With `O=C(CN1CCOCC1)Nc1cc(NC(=O)c2ccc(-c3cccc(F)c3)cc2)ccc1OC(F)(F)F` [Example 74, 3′-fluoro-N-{3-[(morpholin-4-ylacetyl)amino]-4-(trifluoromethoxy)phenyl}biphenyl-4-carboxamide], the concentration for half-maximal inhibition (IC50) is 0.047 µM in test [1], not below 50 µM in test [2], 0.14 µM in test [3] and 8.3 µM in test [4].

For `O=C(CN1CCOCC1)Nc1cc(NC(=O)c2ccc(-c3ccc(F)cc3)cc2)ccc1OC(F)(F)F` [Example 75, 4′-fluoro-N-{3-[(morpholin-4-ylacetyl)amino]-4-(trifluoromethoxy)phenyl}biphenyl-4-carboxamide], the IC50 in test [1] was 0.145 µM; in test [2], not below 50 µM; in test [3] it was 0.85 µM; in test [4] it was 40 µM.

With `Nc1ccc(-c2ccc(C(=O)Nc3ccc(OC(F)(F)F)c(NC(=O)CN4CCOCC4)c3)cc2)cc1` [Example 76, 4′-amino-N-{3-[(morpholin-4-ylacetyl)amino]-4-(trifluoromethoxy)phenyl}biphenyl-4-carboxamide], the IC50 was 0.487 µM in test [1], not below 50 µM in test [2], 0.039 µM in test [3] and 11 µM in test [4].

As to `COC(=O)c1ccc(-c2ccc(C(=O)Nc3ccc(OC)c(NC(=O)CN4CCOCC4)c3)cc2)cc1` [Example 79, methyl 4′-({4-methoxy-3-[(morpholin-4-ylacetyl)amino]phenyl}carbamoyl)biphenyl-4-carboxylate], the half-inhibitory concentration (IC50) in test [1] was 1.48 µM; in test [2], not below 50 µM; in test [3], 4.1 µM; in test [4] it was not below 50 µM.

As for `COc1cccc(-c2ccc(C(=O)Nc3ccc(OC)c(NC(=O)CN4CCOCC4)c3)cc2)c1` [Example 80, 3′-methoxy-N-{4-methoxy-3-[(morpholin-4-ylacetyl)amino]phenyl}biphenyl-4-carboxamide], the IC50 in test [1] was 3.3 µM; in test [2], not below 50 µM; in test [3] it was 3.8 µM; in test [4], not below 50 µM.

In the case of `COc1ccc(NC(=O)c2ccc(-c3cccc(F)c3)cc2)cc1NC(=O)CN1CCOCC1` [Example 81, 3′-fluoro-N-{4-methoxy-3-[(morpholin-4-ylacetyl)amino]phenyl}biphenyl-4-carboxamide], the IC50 is 0.29 µM in test [1], not below 50 µM in test [2], 0.32 µM in test [3] and 9.8 µM in test [4].

`COc1ccc(NC(=O)c2ccc(-c3ccccc3F)cc2)cc1NC(=O)CN1CCOCC1` [Example 82, 2′-fluoro-N-{4-methoxy-3-[(morpholin-4-ylacetyl)amino]phenyl}biphenyl-4-carboxamide]: the IC50 in test [1] was 0.325 µM; in test [2] it was not below 50 µM; in test [3], 1.7 µM; in test [4] it was not below 50 µM.

As for `COc1ccc(NC(=O)c2ccc(-c3ccc(N)cc3)cc2)cc1NC(=O)CN1CCOCC1` [Example 83, 4′-amino-N-{4-methoxy-3-[(morpholin-4-ylacetyl)amino]phenyl}biphenyl-4-carboxamide], the 50% inhibitory concentration (IC50) is 0.319 µM in test [1], not below 50 µM in test [2], 0.76 µM in test [3] and not below 50 µM in test [4].

In the case of `CCOc1ccc(NC(=O)c2ccc(-c3ccccc3)cc2)cc1NC(=O)CN1CCOCC1` [Example 85, N-{4-ethoxy-3-[(morpholin-4-ylacetyl)amino]phenyl}biphenyl-4-carboxamide], the IC50 in test [1] is 0.0997 µM; in test [2], not below 50 µM; in test [3], 0.83 µM; in test [4], not below 50 µM.

As to `COCCOCc1ccc(C(=O)Nc2ccc(-c3ccccc3)cc2)cc1NC(=O)CN1CCOCC1` [Example 86, N-(biphenyl-4-yl)-4-[(2-methoxyethoxy)methyl]-3-[(morpholin-4-ylacetyl)amino]benzamide], the 50% inhibitory concentration (IC50) in test [1] was 0.087 µM; in test [2] it was not below 50 µM; in test [3] it was 0.61 µM; in test [4], not below 50 µM.

Consider `O=C(Nc1ccc(-c2ccccc2)cc1)c1ccc(OCc2ccccc2)c(NC(=O)C2(N3CCOCC3)CC2)c1` [Example 88, 4-(benzyloxy)-N-(biphenyl-4-yl)-3-({[1-(morpholin-4-yl)cyclopropyl]carbonyl}amino)benzamide], for which the IC50 in test [1] was 0.0448 µM; in test [2] it was not below 50 µM; in test [3] it was 0.093 µM; in test [4] it was not below 50 µM.

`CC(=O)NCCCOc1ccc(C(=O)Nc2ccc(-c3ccccc3)cc2)cc1NC(=O)C1(N2CCOCC2)CC1` [Example 90, 4-(3-acetamidopropoxy)-N-(biphenyl-4-yl)-3-({[1-(morpholin-4-yl)cyclopropyl]carbonyl}amino)benzamide]: the 50% inhibitory concentration (IC50) in test [1] stood at 0.05 µM; in test [2], 27.4 µM; in test [3], 0.0206 µM; in test [4] it was 6.1 µM.

Turning to `O=C(Nc1ccc(-c2ccccc2)cc1)c1ccc(OC(F)(F)F)c(NC(=O)C2(N3CCOCC3)CC2)c1` [Example 94, N-(biphenyl-4-yl)-3-({[1-(morpholin-4-yl)cyclopropyl]carbonyl}amino)-4-(trifluoromethoxy)benzamide], the half-inhibitory concentration (IC50) in test [1] is 0.0109 µM; in test [2], not below 50 µM; in test [3], 0.00509 µM; in test [4], 7.6 µM.

On to `COCc1ccc(C(=O)Nc2ccc(-c3ccccc3)cc2)cc1NC(=O)C1(N2CCOCC2)CC1` [Example 95, N-(biphenyl-4-yl)-4-(methoxymethyl)-3-({[1-(morpholin-4-yl)cyclopropyl]carbonyl}amino)benzamide], for which the IC50 in test [1] is 0.00458 µM; in test [2] it was not below 50 µM; in test [3], 0.016 µM; in test [4], not below 50 µM.

What is called IC50 is the concentration at which inhibition is half-maximal.

The values above are taken from patent US20160052898A1, “NOVEL COMPOUNDS” (BAYER PHARMA AKTIENGESELLSCHAFT, priority 2013, published 2016).
